# Experimental data as given in patent US10513521B2, “Compositions and methods for inhibiting BMP” (The Brigham and Women's Hospital, Inc., priority 2014, dated 2019).
# Where a name gives a salt, the structure may show the parent alone.
# What was measured:
# [1] = target: ALK6 (Homo sapiens, UniProt O00238); experiment: TR-FRET enzymatic ALK kinase assay, ALK6
# Experimental: (§1) Briefly, the ALKs enzymatic assay was initiated by dispense 2.5 μl enzyme in 1× kinase reaction buffer. The assay plate was then added with compounds followed by incubation at room temperature for 10 minutes. Then 2.5 μl/well substrate was added.
# [2] = target: ALK1 (Homo sapiens, UniProt P37023); experiment: TR-FRET enzymatic ALK kinase assay, ALK1
# Experimental: as §1
# [3] = target: ALK3 (Homo sapiens, UniProt P36894); experiment: TR-FRET enzymatic ALK kinase assay, ALK3
# Chain of ALK3 (P36894 24-532): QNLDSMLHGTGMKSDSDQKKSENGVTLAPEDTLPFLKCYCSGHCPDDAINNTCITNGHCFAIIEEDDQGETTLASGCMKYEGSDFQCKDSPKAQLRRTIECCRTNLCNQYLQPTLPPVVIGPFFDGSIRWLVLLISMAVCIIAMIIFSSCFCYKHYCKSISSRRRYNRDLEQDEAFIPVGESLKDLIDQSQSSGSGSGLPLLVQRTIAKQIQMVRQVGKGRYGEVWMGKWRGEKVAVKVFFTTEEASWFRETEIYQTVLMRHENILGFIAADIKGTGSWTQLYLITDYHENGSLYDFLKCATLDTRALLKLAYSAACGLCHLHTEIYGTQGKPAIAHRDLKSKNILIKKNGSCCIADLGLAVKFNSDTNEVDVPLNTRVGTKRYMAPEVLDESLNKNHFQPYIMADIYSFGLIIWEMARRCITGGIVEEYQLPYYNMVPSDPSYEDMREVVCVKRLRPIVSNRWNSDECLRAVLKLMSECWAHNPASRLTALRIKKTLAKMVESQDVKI
# Experimental: as §1
# [4] = target: T1, ALK5 (Homo sapiens, UniProt P36897); experiment: TR-FRET enzymatic ALK kinase assay, ALK5
# T1 sequence (P36897 34-503): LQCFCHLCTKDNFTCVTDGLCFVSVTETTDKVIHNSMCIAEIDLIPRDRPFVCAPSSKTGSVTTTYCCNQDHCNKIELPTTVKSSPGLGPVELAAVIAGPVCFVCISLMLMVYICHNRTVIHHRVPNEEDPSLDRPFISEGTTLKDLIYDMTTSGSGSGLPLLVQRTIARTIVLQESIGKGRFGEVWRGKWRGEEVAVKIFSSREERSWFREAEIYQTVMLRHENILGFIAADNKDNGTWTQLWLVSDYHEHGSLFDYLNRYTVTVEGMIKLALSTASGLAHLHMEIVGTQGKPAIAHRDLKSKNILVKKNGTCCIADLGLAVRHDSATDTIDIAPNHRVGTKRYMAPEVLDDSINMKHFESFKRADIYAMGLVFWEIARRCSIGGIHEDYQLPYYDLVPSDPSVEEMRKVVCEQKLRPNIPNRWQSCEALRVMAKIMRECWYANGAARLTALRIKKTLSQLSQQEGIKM
# Experimental: Six ALK kinase enzyme assays were developed for determination of compound activities on ALK1, ALK2, ALK3, ALK4, ALK5 and ALK6.
# as §1
# [5] = target: T2, ALK4 (Homo sapiens, UniProt P36896); experiment: TR-FRET enzymatic ALK kinase assay, ALK4
# T2 sequence (P36896 24-505): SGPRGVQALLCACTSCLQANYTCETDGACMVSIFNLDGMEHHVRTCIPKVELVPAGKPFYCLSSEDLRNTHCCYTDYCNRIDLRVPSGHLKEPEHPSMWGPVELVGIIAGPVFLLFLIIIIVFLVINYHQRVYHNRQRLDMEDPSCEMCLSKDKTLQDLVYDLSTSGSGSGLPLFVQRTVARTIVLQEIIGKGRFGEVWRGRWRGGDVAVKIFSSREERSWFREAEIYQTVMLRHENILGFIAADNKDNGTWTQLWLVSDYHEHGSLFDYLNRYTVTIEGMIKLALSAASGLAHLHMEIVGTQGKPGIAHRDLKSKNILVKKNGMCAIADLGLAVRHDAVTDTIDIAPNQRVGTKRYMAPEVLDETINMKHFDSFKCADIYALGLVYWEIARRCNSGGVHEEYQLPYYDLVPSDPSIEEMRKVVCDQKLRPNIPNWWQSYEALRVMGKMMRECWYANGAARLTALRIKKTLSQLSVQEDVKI
# Experimental: as §1
# [6] = target: T3, ALK2 (Homo sapiens, UniProt Q04771); experiment: TR-FRET enzymatic ALK kinase assay, ALK2
# T3 sequence (Q04771 21-509): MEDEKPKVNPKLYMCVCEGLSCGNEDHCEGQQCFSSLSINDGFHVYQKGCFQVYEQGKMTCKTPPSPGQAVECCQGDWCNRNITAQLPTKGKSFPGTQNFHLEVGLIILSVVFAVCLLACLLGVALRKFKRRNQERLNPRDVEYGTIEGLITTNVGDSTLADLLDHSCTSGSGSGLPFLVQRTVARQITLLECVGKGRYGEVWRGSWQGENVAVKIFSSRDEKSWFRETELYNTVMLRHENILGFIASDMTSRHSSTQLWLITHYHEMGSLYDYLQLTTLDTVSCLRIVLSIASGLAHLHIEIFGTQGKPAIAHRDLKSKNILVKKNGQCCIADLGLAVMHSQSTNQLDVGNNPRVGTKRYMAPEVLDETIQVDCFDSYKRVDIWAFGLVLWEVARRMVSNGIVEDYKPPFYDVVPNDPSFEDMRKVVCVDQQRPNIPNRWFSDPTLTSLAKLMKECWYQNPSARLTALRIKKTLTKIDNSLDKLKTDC
# Experimental: as §1
# Chain of ALK1 (P37023 22-503): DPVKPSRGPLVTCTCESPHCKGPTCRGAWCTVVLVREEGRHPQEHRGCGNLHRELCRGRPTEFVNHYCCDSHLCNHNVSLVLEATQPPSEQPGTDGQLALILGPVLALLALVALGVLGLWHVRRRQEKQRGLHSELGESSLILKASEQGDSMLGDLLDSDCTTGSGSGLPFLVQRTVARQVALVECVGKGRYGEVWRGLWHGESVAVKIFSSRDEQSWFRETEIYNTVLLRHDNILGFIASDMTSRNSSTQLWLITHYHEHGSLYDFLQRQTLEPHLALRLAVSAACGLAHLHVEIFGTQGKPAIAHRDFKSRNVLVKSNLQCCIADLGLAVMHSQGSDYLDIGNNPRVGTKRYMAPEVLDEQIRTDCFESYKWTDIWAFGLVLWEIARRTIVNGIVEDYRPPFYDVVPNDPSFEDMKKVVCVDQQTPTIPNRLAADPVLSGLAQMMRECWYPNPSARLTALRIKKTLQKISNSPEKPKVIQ
# Chain of ALK6 (O00238 14-502): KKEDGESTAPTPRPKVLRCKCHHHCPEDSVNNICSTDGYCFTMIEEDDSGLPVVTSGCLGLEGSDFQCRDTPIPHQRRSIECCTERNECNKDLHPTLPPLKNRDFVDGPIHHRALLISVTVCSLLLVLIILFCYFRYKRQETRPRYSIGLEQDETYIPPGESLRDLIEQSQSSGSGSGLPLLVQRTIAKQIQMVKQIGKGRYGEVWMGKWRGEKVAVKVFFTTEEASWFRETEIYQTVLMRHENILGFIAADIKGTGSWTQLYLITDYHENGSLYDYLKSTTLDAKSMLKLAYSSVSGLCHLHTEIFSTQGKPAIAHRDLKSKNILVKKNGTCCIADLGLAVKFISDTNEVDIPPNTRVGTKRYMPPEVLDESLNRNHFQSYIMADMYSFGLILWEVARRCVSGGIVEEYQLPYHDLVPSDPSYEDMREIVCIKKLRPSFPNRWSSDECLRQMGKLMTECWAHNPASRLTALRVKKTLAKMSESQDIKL
IC50 [1],IC50 [2],IC50 [3],IC50 [4],IC50 [5],IC50 [6],SMILES
> 10 µM,0.63 µM,6.4 µM,> 10 µM,> 10 µM,0.13 µM,"CS(=O)(=O)c1cccc(-c2cnn3cc(-c4ccc(CCN5CCC(O)C5)cc4)cnc23)c1 (stereo not drawn) [Compound 132, 1-(4-(3-(3-(methylsulfonyl)phenyl)pyrazolo[1,5-a]pyrimidin-6-yl)phenethyl)pyrrolidin-3-ol]"
> 10 µM,0.75 µM,5.9 µM,> 10 µM,> 10 µM,0.098 µM,"CS(=O)(=O)c1cccc(-c2cnn3cc(-c4ccc(CCN5CCCC(O)C5)cc4)cnc23)c1 (stereo not drawn) [Compound 141, 1-(4-(3-(3-(methylsulfonyl)phenyl)pyrazolo[1,5-a]pyrimidin-6-yl)phenethyl)piperidin-3-ol]"
0.294 µM,0.02 µM,0.084 µM,5.37 µM,3.54 µM,0.014 µM,"CC(O)c1ccc(-c2cnn3cc(-c4ccc(N5[C@H](C)CNC[C@@H]5C)cc4)cnc23)c2ccccc12 (stereo partly drawn) [Compound 29, 1-(4-(6-(4-((2R,6S)-2,6-dimethylpiperazin-1-yl)phenyl)pyrazolo[1,5-a]pyrimidin-3-yl)naphthalen-1-yl)ethanol]"
> 10 µM,2.5 µM,> 10 µM,> 10 µM,> 10 µM,0.25 µM,"C[C@@H](O)c1cccc(-c2cnn3cc(-c4ccc(CCN5CCOCC5)cc4)cnc23)c1 [Compound 158, (R)-1-(3-(6-(4-(2-morpholinoethyl)phenyl)pyrazolo[1,5-a]pyrimidin-3-yl)phenyl)ethanol]"
> 10 µM,0.39 µM,6.3 µM,> 10 µM,> 10 µM,0.08 µM,"CS(=O)(=O)c1cccc(-c2cnn3cc(-c4ccc(CCN5CCCC5)cc4)cnc23)c1 [Compound 128, 3-(3-(methylsulfonyl)phenyl)-6-(4-(2-(pyrrolidin-1-yl)ethyl)phenyl)pyrazolo[1,5-a]pyrimidine]"
> 10 µM,1.4 µM,4.3 µM,> 10 µM,> 10 µM,0.11 µM,"NC(c1cccc(-c2cnn3cc(-c4ccc(OCCN5CCCCC5)cc4)cnc23)c1)C(F)(F)F (stereo not drawn) [Compound 153, 2,2,2-trifluoro-1-(3-(6-(4-(2-(piperidin-1-yl)ethoxy)phenyl)pyrazolo[1,5-a]pyrimidin-3-yl)phenyl)ethanamine]"
> 10 µM,0.27 µM,0.5 µM,> 10 µM,> 10 µM,0.02 µM,"C[S+](=O)([O-])c1cccc(-c2cnn3cc(-c4ccc(OC5(CN6CCCC(O)C6)CC5)cc4)cnc23)c1 (stereo not drawn) [Compound 186, 1-((1-(4-(3-(3-(methylsulfonyl)phenyl)pyrazolo[1,5-a]pyrimidin-6-yl)phenoxy)cyclopropyl)methyl)piperidin-3-ol]"
> 10 µM,0.9 µM,> 10 µM,> 10 µM,> 10 µM,0.28 µM,"CS(=O)(=O)c1cccc(-c2cnn3cc(-c4ccc(CC5CCNCC5)cc4)cnc23)c1 [Compound 126, 3-(3-(methylsulfonyl)phenyl)-6-(4-(piperidin-4-ylmethyl)phenyl)pyrazolo[1,5-a]pyrimidine. TFA]"
> 10 µM,> 10 µM,> 10 µM,> 10 µM,> 10 µM,1.2 µM,"CS(=O)(=O)c1cc(-c2cnn3cc(-c4ccc(CCN5CCCCC5)cc4)cnc23)cc(C(F)(F)F)c1 [Compound 172, 3-(3-(methylsulfonyl)-5-(trifluoromethyl)phenyl)-6-(4-(2-(piperidin-1-yl)ethyl)phenyl)pyrazolo[1,5-a]pyrimidine]"
> 10 µM,0.65 µM,4.8 µM,> 10 µM,> 10 µM,0.05 µM,"NC1(c2ccc(-c3cnc4c(-c5ccc(S(N)(=O)=O)c6ccccc56)cnn4c3)cc2)CC1 [Compound 192, 4-(6-(4-(1-aminocyclopropyl)phenyl)pyrazolo[1,5-a]pyrimidin-3-yl)naphthalene-1-sulfonamide]"
> 10 µM,1.4 µM,8 µM,> 10 µM,> 10 µM,0.22 µM,"CC(O)c1cccc(-c2cnn3cc(-c4ccc(CCN5CCCC5)cc4)cnc23)c1 (stereo not drawn) [Compound 146, 1-(3-(6-(4-(2-(pyrrolidin-1-yl)ethyl)phenyl)pyrazolo[1,5-a]pyrimidin-3-yl)phenyl)ethanol]"
> 10 µM,2 µM,3.3 µM,> 10 µM,> 10 µM,0.07 µM,"NC(c1cccc(-c2cnn3cc(-c4ccc(OC5(CN6CCOCC6)CC5)cc4)cnc23)c1)C(F)(F)F (stereo not drawn) [Compound 181, 2,2,2-trifluoro-1-(3-(6-(4-(1-(morpholinomethyl)cyclopropoxy)phenyl)pyrazolo[1,5-a]pyrimidin-3-yl)phenyl)ethanamine]"
1.2 µM,7.5 µM,> 10 µM,> 10 µM,> 10 µM,0.55 µM,"C[C@@H]1CNC[C@H](C)N1c1ccc(-c2cnc3c(-c4cc(C(F)(F)F)cc(S(C)(=O)=O)c4)cnn3c2)cc1 [Compound 193, 6-(4-((2R,6S)-2,6-dimethylpiperazin-1-yl)phenyl)-3-(3-(methylsulfonyl)-5-(trifluoromethyl)phenyl)pyrazolo[1,5-a]pyrimidine]"
> 10 µM,2 µM,4.9 µM,> 10 µM,> 10 µM,0.12 µM,"NC(c1cccc(-c2cnn3cc(-c4ccc(OC5(CN6CCC(O)C6)CC5)cc4)cnc23)c1)C(F)(F)F (stereo not drawn) [Compound 182, 1-((1-(4-(3-(3-(1-amino-2,2,2-trifluoroethyl)phenyl)pyrazolo[1,5-a]pyrimidin-6-yl)phenoxy)cyclopropyl)methyl)pyrrolidin-3-ol]"
> 10 µM,1.5 µM,3.3 µM,> 10 µM,8.9 µM,0.19 µM,"C[C@@H](O)c1cccc(-c2cnn3cc(-c4ccc(OCCN5CCCC5)cc4)cnc23)c1 [Compound 160, (R)-1-(3-(6-(4-(2-(pyrrolidin-1-yl)ethoxy)phenyl)pyrazolo[1,5-a]pyrimidin-3-yl)phenyl)ethanol]"
> 10 µM,1.5 µM,5.4 µM,> 10 µM,> 10 µM,0.12 µM,"CC(O)c1cccc(-c2cnn3cc(-c4ccc(C5(N)CC5)cc4)cnc23)c1 (stereo not drawn) [Compound 191, 1-(3-(6-(4-(1-aminocyclopropyl)phenyl)pyrazolo[1,5-a]pyrimidin-3-yl)phenyl)ethanol]"
> 10 µM,0.23 µM,0.87 µM,> 10 µM,> 10 µM,0.02 µM,"CS(=O)(=O)c1cccc(-c2cnn3cc(-c4ccc(OC5(CN6CCC(O)CC6)CC5)cc4)cnc23)c1 [Compound 194, 1-((1-(4-(3-(3-(methylsulfonyl)phenyl)pyrazolo[1,5-a]pyrimidin-6-yl)phenoxy)cyclopropyl)methyl)piperidin-4-ol]"
> 10 µM,1 µM,2.6 µM,> 10 µM,> 10 µM,0.063 µM,"CC(O)c1cccc(-c2cnn3cc(-c4ccc(OCCN5CCCC5)cc4)cnc23)c1 (stereo not drawn) [Compound 145, 1-(3-(6-(4-(2-(pyrrolidin-1-yl)ethoxy)phenyl)pyrazolo[1,5-a]pyrimidin-3-yl)phenyl)ethanol]"
